Assay results published in patent US20050112183A1, “Compositions and methods for treating neuropathic sensory loss” (priority 2003, published 2005).

System: neuropathically induced negative sensory phenomena (NSP)
Assay: application of local anesthetic to diabetic neuropathy patients, patient-reported
Format: in vivo
Settings: some diabetic neuropathy patients; local application of the anesthetic
Source text: It has previously been assumed that positive sensory phenomena (“PSP”) is caused by an increase in spontaneous nerve discharge from damaged and dysfunctional peripheral nerves. […] Based on the current understanding of the underlying etiology of NSP it would be unexpected that an anesthetic would effectively mitigate the negative effects of NSP. It has now been found, however, that the application of local anesthetics such as lidocaine can effectively treat NSP. For example, some diabetic neuropathy patients reported both pain relief and improved NSP, that is, the patients experienced pain relief, improvement of sensory loss (decreased numbness), and improved tactile response (they could better feel objects touching their skin). Thus the anesthetic as applied in this embodiment decreased numbness. This is contrary to all prior teachings about anesthetics.

CCN(CC)CC(=O)Nc1c(C)cccc1C [lidocaine, 2-(diethylamino)-N-(2,6-dimethylphenyl)-acetamide]
negative sensory phenomena (NSP: numbness, sensory loss, tactile response) as reported by patients: improved NSP
pain as reported by patients: pain relief
